# Results taken from the supplement of paper PMC8960247.
# Counter-ions that a name gives are not always drawn. ± gives the standard error.
# Tests used:
# 621-102 (TSC2-deficient) = assay: relative viability vs DMSO; higher = less cytotoxic; conditions: serum: 10% FBS, 72 h
# 621-103 (TSC2-rescued) = assay: as above; conditions: serum: 10% FBS, 72 h
# 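Further: immortalized renal angiomyolipoma cells stably carrying empty vector or TSC2, dosed in 384-well plates in DMEM, viability normalized to vehicle-treated wells within each plate.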
SMILES,relative viability (621-102 (TSC2-deficient); 0.0001 µM),relative viability (621-102 (TSC2-deficient); 0.001 µM),relative viability (621-102 (TSC2-deficient); 0.01 µM),relative viability (621-102 (TSC2-deficient); 0.1 µM),relative viability (621-102 (TSC2-deficient); 1 µM),relative viability (621-102 (TSC2-deficient); 10 µM),relative viability (621-103 (TSC2-rescued); 0.0001 µM),relative viability (621-103 (TSC2-rescued); 0.001 µM),relative viability (621-103 (TSC2-rescued); 0.01 µM),relative viability (621-103 (TSC2-rescued); 0.1 µM),relative viability (621-103 (TSC2-rescued); 1 µM),relative viability (621-103 (TSC2-rescued); 10 µM)
CCO[C@@H]1OC(=O)C[C@@H]1NC(=O)[C@@H]1CCCN1C(=O)[C@@H](NC(=O)c1ccc(N)c(Cl)c1)C(C)(C)C [VX-765],109 ± 0.74%,105 ± 4.9%,116 ± 3.2%,108 ± 4.6%,101 ± 4%,106 ± 1.8%,111 ± 2.9%,95.9 ± 4.8%,101 ± 4.6%,105 ± 6.8%,101.8 ± 0.69%,102 ± 4.9%
CNC(=O)c1cc(Oc2ccc(NC(=O)Nc3ccc(Cl)c(C(F)(F)F)c3)cc2)ccn1 [Sorafenib Tosylate],90.38 ± 0.54%,99.7 ± 5.4%,113 ± 6.4%,110.1 ± 0.44%,127 ± 1.7%,82.2 ± 13%,97.89 ± 0.32%,102 ± 2%,106 ± 1.2%,102 ± 1.9%,102 ± 1.6%,44.5 ± 3.4%
CCNC(=O)c1noc(-c2cc(C(C)C)c(O)cc2O)c1-c1ccc(CN2CCOCC2)cc1 [NVP-AUY922],35.4 ± 3.1%,33 ± 1.4%,22.2 ± 0.39%,20.32 ± 0.026%,23 ± 0.25%,21.6 ± 1.3%,17.5 ± 0.57%,6.795 ± 0.067%,6.22 ± 0.57%,5.21 ± 0.31%,4.92 ± 0.055%,6.99 ± 0.21%
O=c1[nH]c2ccccc2n1CCCN1CCC(n2c(=O)[nH]c3cc(Cl)ccc32)CC1 [Domperidone (Motilium)],102.7 ± 0.59%,96 ± 10%,95.3 ± 3.6%,106 ± 1.3%,98.8 ± 1.5%,90.8 ± 2.7%,99.17 ± 0.87%,93.61 ± 0.19%,103.3 ± 0.16%,110 ± 2%,101.1 ± 0.98%,96.7 ± 2%
COC(=O)c1ccc2c(C(=Nc3ccc(N(C)C(=O)CN4CCN(C)CC4)cc3)c3ccccc3)c(O)[nH]c2c1 [BIBF1120 (Vargatef)],101 ± 2.6%,111 ± 5.3%,112 ± 1.5%,108 ± 3.1%,105 ± 1.7%,95.8 ± 1.2%,86 ± 5.4%,97.2 ± 3.1%,103.3 ± 0.75%,98.9 ± 3.9%,96.9 ± 2.5%,82 ± 2.1%
CCOc1nc2cccc(C(=O)OC(C)OC(=O)OC3CCCCC3)c2n1Cc1ccc(-c2ccccc2-c2nn[nH]n2)cc1 (stereo unspecified) [Candesartan cilexetil],106.1 ± 0.3%,97.7 ± 2.1%,102 ± 2.7%,106 ± 1.2%,96.9 ± 2.4%,97.55 ± 0.87%,96.526 ± 0.053%,95.8 ± 3.5%,94.03 ± 0.16%,97.8 ± 1.6%,99.8 ± 5.4%,94.55 ± 0.33%
O=C(Nc1cccnc1)N1CCC(Cc2cccc(Oc3ccc(C(F)(F)F)cn3)c2)CC1 [PF-3845],104 ± 3.4%,103 ± 2.9%,104 ± 1.5%,102.11 ± 0.087%,102 ± 3.6%,98.8 ± 1.6%,110 ± 5.4%,116 ± 8.3%,112.64 ± 0.013%,109 ± 4.7%,116.1 ± 0.73%,103 ± 1.1%
CCc1c2c(nc3ccc(OC(=O)N4CCC(N5CCCCC5)CC4)cc13)-c1cc3c(c(=O)n1C2)COC(=O)[C@]3(O)CC [Irinotecan HCl Trihydrate],94 ± 3.9%,98.4 ± 3%,97.8 ± 1.5%,108 ± 4.1%,99.4 ± 3%,63.351 ± 0.053%,107 ± 5.2%,107 ± 3.3%,105 ± 1.8%,101 ± 5.9%,99.3 ± 1.9%,57.5 ± 2.7%
O=C(O)/C=C/c1ccc(Cn2ccnc2)cc1 [Ozagrel],100 ± 3.7%,108 ± 3.7%,105 ± 2.5%,110 ± 5.1%,102.8 ± 0.53%,95.1 ± 4.6%,107 ± 1.8%,112 ± 1.7%,98.4 ± 2.8%,104 ± 3.1%,106 ± 2.4%,103 ± 1.1%
COc1cc2ncnc(-n3nc(-c4ccccn4)nc3N)c2cc1OC,101 ± 1.5%,103 ± 2.7%,107 ± 2.2%,98.84 ± 0.53%,94.28 ± 0.36%,49.6 ± 1.6%,106 ± 1.7%,107 ± 2.5%,109 ± 4%,108.3 ± 0.77%,110.4 ± 0.79%,48.2 ± 3.8%
CCN1CCCC1CNC(=O)c1cc(S(=O)(=O)CC)c(N)cc1OC (stereo unspecified) [Amisulpride],111 ± 3.8%,100 ± 1.3%,104.3 ± 0.84%,105 ± 3%,107.5 ± 0.4%,110 ± 1.6%,104 ± 1.8%,105 ± 2.5%,110.7 ± 0.99%,103.5 ± 0.35%,113 ± 4.8%,114 ± 3.6%
C[C@]12CCC(=O)C(O)=C1CC[C@@H]1[C@@H]2CC[C@]2(C)C(=O)CC[C@@H]12 [Formestane],105 ± 1.1%,113 ± 3.5%,120 ± 4.2%,94.73 ± 0.3%,98.9 ± 1.5%,109 ± 0.99%,105 ± 4%,102.8 ± 0.63%,105.2 ± 0.81%,102 ± 1.2%,101 ± 3.9%,102.4 ± 0.89%
CO[C@H]1C[C@@H]2CC[C@@H](C)[C@@](O)(O2)C(=O)C(=O)N2CCCC[C@H]2C(=O)O[C@H]([C@H](C)C[C@@H]2CC[C@@H](OCCO)[C@H](OC)C2)CC(=O)[C@H](C)/C=C(\C)[C@@H](O)[C@@H](OC)C(=O)[C@H](C)C[C@H](C)/C=C/C=C/C=C/1C [Everolimus (RAD001)],46.7 ± 2.2%,56.4 ± 1.5%,49.8 ± 4.2%,52.7 ± 3.3%,54.2 ± 3%,50.3 ± 3.7%,71.1 ± 3.2%,69.7 ± 1.3%,68.2 ± 1.6%,71.6 ± 2%,75.3 ± 2.6%,67.6 ± 0.97%
CN1CCc2c(c3ccccc3n2Cc2ccc(C(=O)NO)cc2)C1 [Tubastatin A HCl],73.7 ± 1.7%,91.6 ± 2.8%,85.5 ± 1%,90.1 ± 3.6%,82.6 ± 2.3%,75.4 ± 2.7%,101 ± 2.1%,102 ± 2.5%,101 ± 3.4%,100 ± 2.9%,98.48 ± 0.54%,90.6 ± 1.5%
CCN(CC)Cc1ccc2cc(COC(=O)Nc3ccc(C(=O)NO)cc3)ccc2c1 [ITF2357],107 ± 6.2%,101 ± 3.4%,95.94 ± 0.22%,76.42 ± 0.1%,57.1 ± 3.5%,25.4 ± 0.77%,98.21 ± 0.79%,95.5 ± 1.7%,96 ± 2%,67.63 ± 0.33%,26.9 ± 0.91%,3.1 ± 0.064%
CCOC(=O)[C@H](CCc1ccccc1)N[C@@H](C)C(=O)N1CCC[C@H]1C(=O)O [Enalapril Maleate],103 ± 1.4%,92.6 ± 3.4%,101.9 ± 0.59%,101 ± 3.5%,105 ± 4.1%,100.5 ± 0.3%,99 ± 1.8%,100 ± 2.9%,89.7 ± 10%,100 ± 1.5%,99.6 ± 0.35%,103 ± 2.4%
CNCCCC12CCC(c3ccccc31)c1ccccc12 [Maprotiline HCl],124.2 ± 0.15%,114 ± 4.2%,109 ± 5.4%,107 ± 3.5%,107.1 ± 0.36%,82.2 ± 3.8%,101 ± 1.2%,102 ± 1.2%,99.43 ± 0.5%,95.4 ± 4.2%,87.6 ± 2.2%,64.61 ± 0.13%
OCCn1cc(-c2ccc3c(c2)CC/C3=N\O)c(-c2ccncc2)n1 [GDC-0879],101.5 ± 0.2%,102 ± 1.7%,107 ± 2.4%,102 ± 2.6%,108 ± 1.7%,92.1 ± 2%,101.6 ± 0.87%,97.76 ± 0.82%,98.9 ± 1.5%,99.06 ± 0.76%,96.15 ± 0.42%,100.41 ± 0.061%
